Test results taken from US8192962B2, “Processes for detecting toxic substances” (Daikin Industries, Ltd., priority 2001, dated 2012).

What was measured:
[1] = tested on: Detoxification protein genes; experiment: DNA chip mRNA expression in yeast, detoxification protein genes (Table 8); assay type: cell-based, Saccharomyces cerevisiae S288C
Procedure, shortened: (§1)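 Whole-genome yeast DNA chip hybridization (65° C., >12 h) of Cy-labeled cDNA from S288C cells exposed 2 h at 25° C. to a sub-lethal toxicant dose in YPD; value is intensity relative to chemical-free control.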

[2] = tested on: DNA repair protein genes; experiment: DNA chip mRNA expression in yeast, DNA repair protein genes (Table 3); assay type: cell-based, Saccharomyces cerevisiae S288C; conditions: incubated two hours, concentrations as in the 1st table
Procedure, shortened: as §1

Measured: The level of expressed mRNA in the presence of chemical substance/The level of expressed mRNA in the absence of chemical substance

COc1cc(CNC(=O)CCCCC=CC(C)C)ccc1O [(12), 8-methyl-N-vanillyl-6-nonenamide]
1.5: [1]; yeast gene YCL035C | [1]; yeast gene YDL100C | [1]; yeast gene YNL239W
1.6: [1]; yeast gene YML028W | [2]; yeast gene YLR103C
2.0: [1]; yeast gene YHL040C | [1]; yeast gene YNL241C
1.7: [1]; yeast gene YBL064C | [1]; yeast gene YEL065W
0.7: [1]; yeast gene YDR538W | [1]; yeast gene YHR008C | [1]; yeast gene YJL101C | [1]; yeast gene YKL064W | [1]; yeast gene YLL057C | [1]; yeast gene YNL259C | [2]; yeast gene YCR014C | [2]; yeast gene YPL022W | [2]; yeast gene YPR025C
2.6: [1]; yeast gene YHL047C
0.6: [1]; yeast gene YDL168W | [1]; yeast gene YGR138C | [1]; yeast gene YGR224W | [1]; yeast gene YOR247W | [2]; yeast gene YLR288C | [2]; yeast gene YMR284W
0.9: [1]; yeast gene YCL069W | [1]; yeast gene YDR453C | [1]; yeast gene YDR513W | [1]; yeast gene YEL027W | [1]; yeast gene YFL050C | [1]; yeast gene YGR209C | [1]; yeast gene YHR048W | [1]; yeast gene YJR104C | [1]; yeast gene YKR066C | [1]; yeast gene YMR015C | [1]; yeast gene YMR038C | [1]; yeast gene YOL158C | [1]; yeast gene YOR251C | [1]; yeast gene YPL163C | [2]; yeast gene YAR007C | [2]; yeast gene YBR073W | [2]; yeast gene YDR369C | [2]; yeast gene YGL163C | [2]; yeast gene YGR180C | [2]; yeast gene YGR258C | [2]; yeast gene YIL143C | [2]; yeast gene YJR046W | [2]; yeast gene YLR233C | [2]; yeast gene YML032C | [2]; yeast gene YML058W | [2]; yeast gene YNL312W | [2]; yeast gene YOR005C | [2]; yeast gene YPL164C | [2]; yeast gene YPL194W
1.4: [2]; yeast gene YGL127C | [2]; yeast gene YMR096W | [2]; yeast gene YNL250W
1.0: [1]; yeast gene YBR145W | [1]; yeast gene YBR293W | [1]; yeast gene YGL013C | [1]; yeast gene YKL026C | [2]; yeast gene YAL015C | [2]; yeast gene YDR054C | [2]; yeast gene YEL019C | [2]; yeast gene YIL153W | [2]; yeast gene YJL026W
4.3: [2]; yeast gene YFL014W
1.1: [1]; yeast gene YCR083W | [1]; yeast gene YER185W | [1]; yeast gene YGR088W | [1]; yeast gene YHR053C | [1]; yeast gene YIR038C | [1]; yeast gene YLL060C | [2]; yeast gene YDL200C | [2]; yeast gene YEL037C | [2]; yeast gene YIL072W | [2]; yeast gene YJR052W
1.3: [1]; yeast gene YIR002C | [1]; yeast gene YLL028W | [2]; yeast gene YDL059C | [2]; yeast gene YGL058W | [2]; yeast gene YGR231C | [2]; yeast gene YIR002C | [2]; yeast gene YKL145W
0.4: [1]; yeast gene YPR200C | [2]; yeast gene YER162C
0.8: [1]; yeast gene YBR008C | [1]; yeast gene YDR256C | [1]; yeast gene YKR105C | [1]; yeast gene YKR106W | [1]; yeast gene YLR043C | [1]; yeast gene YLR046C | [1]; yeast gene YOR031W | [1]; yeast gene YOR273C | [2]; yeast gene YBL019W | [2]; yeast gene YDL017W | [2]; yeast gene YGL249W | [2]; yeast gene YMR072W | [2]; yeast gene YNL213C | [2]; yeast gene YNL261W | [2]; yeast gene YOL043C
1.2: [1]; yeast gene YGL254W | [1]; yeast gene YGR197C | [1]; yeast gene YHR055C | [2]; yeast gene YGL091C | [2]; yeast gene YHR164C | [2]; yeast gene YIL036W | [2]; yeast gene YOR386W
4.0: [1]; yeast gene YOR153W
0.5: [1]; yeast gene YBR244W | [1]; yeast gene YML116W | [2]; yeast gene YBR272C | [2]; yeast gene YMR035W
